The results in this text go back to patent US6939565B2, “Protease inhibitors of the coagulation cascade isolated from Dysidea sponges” (Pharmacia Corporation, priority 2001, dated 2005).

Usually IC50 stands for the midpoint of a concentration-inhibition curve.

Common to all, as to type: biochemical
For assay [1], the target named is T1, Thrombin (Homo sapiens, UniProt P00734).
T1 construct: Xa with factor Va converts prothrombin (II) to thrombin (IIa)
The assay is described as follows: HPLC-PDA-MS-bioassay, thrombin inhibition. As for the experimental part: (§1) An aliquot of sample was injected onto C18 reversed-phase column with flow rate of 1 mL/min. Mass spectra were recorded from 150 to 1000 amu in both positive and negative modes using electrospray ionization. A splitter was attached immediately after the HPLC column so that a fraction of the eluent was directed towards the electrospray source. The remaining fraction was collected in deep-well plates. The plates were dried overnight and biassayed.

Assay [2] has as its system Trypsin. The assay is described as follows: HPLC-PDA-MS-bioassay, trypsin inhibition. As for the experimental part: as §1
In assay [3] the target is T2, TF/VIIa (Homo sapiens, UniProt P08709).
T2 construct: recombinant human factor VIIa
T2 sequence (P08709 61-212 limits assumed): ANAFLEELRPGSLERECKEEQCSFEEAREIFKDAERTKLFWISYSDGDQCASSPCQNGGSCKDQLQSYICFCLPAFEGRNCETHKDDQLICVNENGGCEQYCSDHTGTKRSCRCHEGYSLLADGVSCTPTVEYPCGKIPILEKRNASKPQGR
T2 sequence (P08709 213-466 limits assumed): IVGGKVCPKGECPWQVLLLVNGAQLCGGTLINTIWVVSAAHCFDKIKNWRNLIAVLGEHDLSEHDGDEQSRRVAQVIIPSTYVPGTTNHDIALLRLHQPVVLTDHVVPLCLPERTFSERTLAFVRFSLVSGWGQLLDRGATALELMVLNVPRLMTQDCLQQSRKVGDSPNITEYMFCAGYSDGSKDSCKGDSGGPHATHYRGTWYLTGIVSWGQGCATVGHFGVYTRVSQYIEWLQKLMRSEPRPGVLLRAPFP
T2 sequence (P13726 33-251 partner limits assumed): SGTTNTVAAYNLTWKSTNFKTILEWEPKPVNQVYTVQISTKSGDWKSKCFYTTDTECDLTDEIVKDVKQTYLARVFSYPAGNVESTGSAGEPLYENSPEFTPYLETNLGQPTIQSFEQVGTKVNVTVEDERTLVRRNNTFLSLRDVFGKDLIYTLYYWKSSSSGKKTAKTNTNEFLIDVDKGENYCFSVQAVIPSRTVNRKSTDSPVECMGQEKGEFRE
The assay is described as follows: Factor VIIa/TF inhibitory assay (chromogenic substrate, OD 405 nm). The settings on record: recombinant human factor VIIa with recombinant soluble tissue factor. How it is done:
To determine inhibitory activity, the compound having structure (1) was combined with recombinant human factor VIIa in black clear bottom well plates followed by a 10 minute room temperature incubation. Recombinant soluble tissue factor was then added followed by a 15 minute room temperature incubation. Finally, chromozymen tPA substrate was added and the plates were immediately read at 405 nm to determine background absorbance. After incubation, the rate of hydrolysis of the substrate was measured by monitoring the reaction at 405 nm for the release of p-nitroaniline. Percent inhibition of TF/VIIa activity was calculated from OD 405 nm value from the experimental and control sample. All hits 50% of control and less were confirmed and requested for IC50 values.
as §1

The target in assay [4] is Xa (Homo sapiens, UniProt P00742). The assay is described as follows: HPLC-PDA-MS-bioassay, factor Xa inhibition. How it is done:
as §1

Sequence of Xa (P00742 41-179 limits assumed): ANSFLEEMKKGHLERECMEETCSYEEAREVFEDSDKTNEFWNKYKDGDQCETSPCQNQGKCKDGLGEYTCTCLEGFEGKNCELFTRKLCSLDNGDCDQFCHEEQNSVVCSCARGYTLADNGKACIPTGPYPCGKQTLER
Sequence of Xa (P00742 235-488 limits assumed): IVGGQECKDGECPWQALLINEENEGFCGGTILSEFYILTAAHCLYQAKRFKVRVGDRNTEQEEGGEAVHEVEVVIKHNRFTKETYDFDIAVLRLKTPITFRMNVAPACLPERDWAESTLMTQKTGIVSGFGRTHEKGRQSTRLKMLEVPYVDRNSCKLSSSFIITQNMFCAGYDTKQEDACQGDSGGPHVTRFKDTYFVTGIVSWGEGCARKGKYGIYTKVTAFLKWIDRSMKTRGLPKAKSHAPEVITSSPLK

Turning to `COC(COS(=O)(=O)O)C(=O)NC(C(=O)N1C(C(=O)NCCC2=CCN(C(=N)N)C2)CC2CC(O)C(O)CC21)C(Cl)C(C)C` (stereo not shown) [Structure 1], the IC50 in assay [1] came to 4 nM; in assay [2] it was 37 nM; in assay [3], 9 nM; in assay [4] it was 200 nM.
